Experimental data from PubChem BioAssay AID1845215 (Molecular Pharmacology Branch, DTP, NCI, 2023).
Where “and” joins values, the source holds several entries; their conditions need not be identical. Identical values can stand only once. Calls of active or inactive are those of the source. How the source made its calls: active means viability on the fitted dose curve at most 10% of control; inactive means the rest.

Tested on: SW 1271 complex tumor spheroid viability
Assay: Anticancer human tumor SW 1271 cell line growth inhibition;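 on IC50: spheroids exposed to agents for seven days before readout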;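 on viability, T/C: spheroids exposed to agents for seven days before readout; percent of DMSO vehicle control luminescence so 100% = vehicle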
Settings: for viability, T/C: stronger effect = lower value
Source text: Multicellular complex tumor spheroid response to DNA repair inhibitors in combination with DNA-damaging drugs
This study explores the anticancer activities of DNA-damaging drugs and inhibitors of DNA damage repair, both as single agents and in combinations. Complex tumor spheroids comprised of malignant cells, endothelial cells and mesenchymal stem cells served as an in vitro model for human solid tumors. This model system incorporates physiologically relevant features and patient-derived or established malignant cell lines with clinically relevant genetic alterations from many tumor types. Twenty-six patient-derived or established malignant cell lines were evaluated representing sarcoma, melanoma, small cell lung cancer (SCLC), non-small cell lung cancer (NSCLC), as well as bladder, ovarian and pancreatic cancers. The concentration ranges selected for each drug and investigational agent were based upon clinically achievable concentrations if the clinical Cmax of the agent was known.
Compounds. The drugs and compounds olaparib (NSC753686), talazoparib (NSC767125), berzosertib (NSC777718), elimusertib (NSC800525), nedisertib (NSC802822), VX-984 (NSC792969), AZD-1390 (NSC803789), temozolomide (NSC362856), topotecan (NSC609699), trabectedin (NSC813783), staurosporine (NSC755774), and gemcitabine (NSC613327) were obtained from the National Cancer Institute (NCI) Developmental Therapeutics Program Chemical Repository. The FDA-approved anticancer drug set is available from the Developmental Therapeutics Program at https://dtp.cancer.gov/organization/dscb/obtaining/available_plates.htm. […] The stock solutions were prepared in dimethyl sulfoxide (DMSO, Sigma-Aldrich, St. Louis, MO, cat. D2650) at 400-fold the tested concentration and stored at -70 degrees C. Prior to their use, the stock solutions were diluted in fresh medium and the final DMSO concentration in the assay was 0.25% (v/v). All drugs and investigational agents were tested over a range starting from a high concentration at or near the clinical Cmax and decreasing in half-log increments. If the clinical Cmax for an agent had not been determined, the highest concentration tested was 10 microM.
Cell Lines. The patient-derived cancer cell (PDC) lines: 156681-154-R-J1-PDC, 283228-195-R-J1-PDC, 287954-098-R-J1-PDC, 292921-168-R-J2-PDC, 349418-098-R-PDC, 425362-245-T-J1-PDC, 556581-035-R-J1-PDC, and BL0293-F563-PDC were received from the NCI Patient-Derived Models Repository (PDMR, https://pdmr.cancer.gov). The established cell lines HS-SY-2 (RRID:CVCL_8719), MPNST, and SYO-1 (RRID:CVCL_7146) were obtained from the Sloan Kettering Institute. The alveolar soft parts sarcoma cell line ASPS-1 (RRID:CVCL_S738) was established at the NCI and grown from internal seed stocks. The following established cell lines were purchased from the American Type Culture Collection (ATCC, Manassas, VA): G-401 (ATCC, cat. CRL-1441, RRID:CVCL_0270), SW982 (ATCC, cat. HTB-93, RRID:CVCL_1734), VA-ES-BJ (ATCC, cat. CRL-2138, RRID:CVCL_1785), NCI-H719 (ATCC, cat. CRL-5837, RRID:CVCL_1582), NCI-H196 (ATCC, cat. CRL-5823, RRID:CVCL_1509), NCI-H841 (ATCC, cat. CRL-5845, RRID:CVCL_1595), NCI-H1618 (ATCC, cat. CRL-5879, RRID:CVCL_1480), NCI-H1876 (ATCC, cat. CRL-5902, RRID:CVCL_1503), DMS 114 (ATCC, cat. CRL-2066; RRID:CVCL_1174), NCI-H211 (ATCC, cat. CRL-5824; RRID:CVCL_1529), and SW 1271 (ATCC, cat. CRL-2177, RRID:CVCL_1716). The small cell lung cancer cell line COR-L88 was purchased from Sigma-Aldrich (cat. 92031917-1VL, RRID:CVCL_1141). The non-small cell lung cancer cell lines NCI-H226 (RRID:CVCL_1544) and NCI-H322M (RRID:CVCL_1557) were established at the NCI and grown from internal seed stocks. Pooled donor human umbilical vein endothelial cells (HUVEC, Lonza, cat. CC-2519) and human mesenchymal stem cells (hMSC, Lonza, cat. PT-2501) were purchased from Lonza (Walkersville, MD).
Cell Culture. All cells were maintained in an incubator at 37 degrees C and 5% CO2 with 95% humidity. […]

COc1cc(C)[nH]c(=O)c1CN1CCc2c(Cl)cc(C(OC)C3COC3)c(Cl)c2C1=O (stereo not drawn) + COc1cc2c(cc1O)CCNC21CSC2c3c(OC(C)=O)c(C)c4c(c3C(COC1=O)N1C(O)C3Cc5cc(C)c(OC)c(O)c5C(C21)N3C)OCO4
IC50 (curve of first compound, second compound 30 pM): > 10 µM | IC50 (curve of first compound, second compound 94.9 pM): 5.22 µM | IC50 (curve of first compound, second compound 0.0003 µM): < 0.0316 µM | IC50 (curve of first compound, second compound 0.000949 µM): < 0.0316 µM | IC50 (curve of first compound, second compound 0.003 µM): < 0.0316 µM | viability, T/C (second compound 30 pM, first compound 0.0316 µM): 101% | viability, T/C (second compound 30 pM, first compound 0.1 µM): 96% | viability, T/C (second compound 30 pM, first compound 0.316 µM): 96.4% | viability, T/C (second compound 30 pM, first compound 1 µM): 89.6% | viability, T/C (second compound 30 pM, first compound 3.16 µM): 86.8% | viability, T/C (second compound 30 pM, first compound 10 µM): 77.1% | viability, T/C (second compound 94.9 pM, first compound 0.0316 µM): 65.9% | viability, T/C (second compound 94.9 pM, first compound 0.1 µM): 75.3% | viability, T/C (second compound 94.9 pM, first compound 0.316 µM): 67.4% | viability, T/C (second compound 94.9 pM, first compound 1 µM): 64.4% | viability, T/C (second compound 94.9 pM, first compound 3.16 µM): 57% | viability, T/C (second compound 94.9 pM, first compound 10 µM): 40.9% | viability, T/C (second compound 0.0003 µM, first compound 0.0316 µM): 33.3% | viability, T/C (second compound 0.0003 µM, first compound 0.1 µM): 37% | viability, T/C (second compound 0.0003 µM, first compound 0.316 µM): 34.2% | viability, T/C (second compound 0.0003 µM, first compound 1 µM): 38.3% | viability, T/C (second compound 0.0003 µM, first compound 3.16 µM): 36.6% | viability, T/C (second compound 0.0003 µM, first compound 10 µM): 37.1% | viability, T/C (second compound 0.000949 µM, first compound 0.0316 µM): 5.93% | viability, T/C (second compound 0.000949 µM, first compound 0.1 µM): 5.35% | viability, T/C (second compound 0.000949 µM, first compound 0.316 µM): 4.91% | viability, T/C (second compound 0.000949 µM, first compound 1 µM): 3.61% | viability, T/C (second compound 0.000949 µM, first compound 3.16 µM): 7.88% | viability, T/C (second compound 0.000949 µM, first compound 10 µM): 2.67% | viability, T/C (second compound 0.003 µM, first compound 0.0316 µM): 0.11% | viability, T/C (second compound 0.003 µM, first compound 0.1 µM): 0.12% | viability, T/C (second compound 0.003 µM, first compound 0.316 µM): 0.11% | viability, T/C (second compound 0.003 µM, first compound 1 µM): 0.11% | viability, T/C (second compound 0.003 µM, first compound 3.16 µM): 0.11% | viability, T/C (second compound 0.003 µM, first compound 10 µM): 0.16%

CC(C)n1c(=O)n(C)c2cnc3cc(F)c(-c4ccc(OCCCN5CCCCC5)nc4)cc3c21
viability, T/C (compound 0.0316 µM): 94.1% and 98.9% and 79.6% | outcome (compound 0.1 µM): inactive | viability, T/C (compound 0.1 µM): 86.3% and 78.7% | viability, T/C (compound 0.316 µM): 92.8% and 94.3% and 72.7% | viability, T/C (compound 1 µM): 94.6% and 83.5% and 71.3% | viability, T/C (compound 3.16 µM): 86.3% and 70.8% and 59.2% | viability, T/C (compound 10 µM): 60.3% and 48.2% and 20.9% | IC50 (curve of compound): > 10 µM and 9.16 µM and 4.08 µM
